In patent US4925834A, “3-methylene-4-androsten-17-ones, process for their production and pharmaceutical preparations containing them” (Schering Aktiengesellschaft, priority 1987, dated 1990):

Test system: aromatase
Experiment: PMSG test in infantile female rats, orally (serum estradiol)
Assay type: in vivo, rat
Conditions: for Concentration in serum estradiol / % inhibition (against the PMSG control): 10 mg/animal, 2 × p.o., PMSG-treated infantile female rats; for Concentration in serum estradiol: mean with standard deviation, groups of 10; for % inhibition (against the PMSG control): serum estradiol; for effectiveness in oral application: 2×10 mg, PMSG test, in words
Procedure: The aromatase activity can be measured by the influence of the estrogen formation stimulated by PMSG. [J. Steroid. Biochem., 7 (1976) 787] Anit-tumor activity in humans of compounds which have a positive effect in the PMSG test is described in The Lancet, 1 Dec. 1984, ppg. 1237-1239.
In the so-called PMSG test 21-day-old female rats are pretreated subcutaneously every other day for a total of 7 times with 100 IU of PMSG each time. 1 hour before and 8 hours after the last PMSG application (d12) the animals receive the test substance by oral dose. They are killed 24 hours after the last PMSG application. The estradiol is examined radioimmunologically in the serum. The average value of the estradiol concentration in nmol/l with standard deviation is calculated for each group of 10 animals. The significance of the differences from the control group are examined by analysis of variance.
The percentage inhibition is calculated against the PMSG control.

| SMILES | Concentration in serum estradiol [nmol/L] | % inhibition (against the PMSG control) [%] | effectiveness in oral application |
| --- | --- | --- | --- |
| C=C1C=C2CC[C@@H]3[C@H](CC[C@]4(C)C(=O)CC[C@@H]34)[C@@]2(C)CC1 (stereo in doubt) [B, 3-methylene-4-androsten-17-one] | 6.20 ± 0.80 | 0 | no effectiveness |
| C[C@]12CCC(=O)C(O)=C1CC[C@@H]1[C@@H]2CC[C@]2(C)C(=O)CC[C@@H]12 [A, 4-hydroxy-4-androstene-3,17-dione] | 6.08 ± 0.56 | 0 | no effectiveness |
| CSC[C@]12CCC(=CF)C=C1CC[C@@H]1[C@@H]2CC[C@]2(C)C(=O)CC[C@@H]12 [C, 3-fluoromethylene-19-methylthio-4-androsten-17-one] | 3.24 ± 0.81 | 45 | markd inhibition effectiveness |
